Source: PMC9437101, “Curcumin-based-fluorescent probes targeting ALDH1A3 as a promising tool for glioblastoma precision surgery and early diagnosis” (Communications Biology, 2022)
Several values for one entry are separate records, joined by “and”; a condition that tells them apart may be missing. Equal values may be shown once.

How the values were obtained:
[1] = system: HEK293T human embryonic kidney; assay: Cell viability (MTT assay); format: cell-based; conditions: 10uM, 72 h
Protocol: (§1) In total, 10 × 10^5 U87MG human glioblastoma, patient-derived glioma cells 3054 and 3060, HEK293T human embryonic kidney, 4T1 murine mammary carcinoma, human fetal astrocytes cell lines were plated in their respective medium and treated for 72 h with our fluorescent probe 10 and 11, solubilized in DMSO in a final concentration of […]. We treated controls with DMSO in the same final concentration and we compared the viability of each treatment to controls. The viability of cells was measured using the 3-(4,5-dimethylthiazol-2-yl)-2,5-diphenyltetrazolium assay (MTT assay)[23].

[2] = Cell viability (MTT assay); format: cell-based, human; conditions: human
Protocol: as §1

U87MG human glioblastoma = assay: Cell viability (MTT assay); format: cell-based; conditions: 10uM, 72 h
Protocol: as §1

[3] = system: patient-derived glioma cells 3060; assay: Cell viability (MTT assay); format: cell-based, human; conditions: 3060; 10uM, 72 h
Protocol: as §1

[4] = system: patient-derived glioma cells 3054; assay: Cell viability (MTT assay); format: cell-based, human; conditions: 3054; 10uM, 72 h
Protocol: as §1

human fetal astrocytes = assay: Cell viability (MTT assay); format: cell-based; conditions: hASTRO; 10uM, 72 h
Protocol: as §1

HEK293T cells = assay: Fluorescent microscopy of probe in cells; format: cell-based, human; conditions: 10 µM, 2 h (Fig. 5g)
Protocol: In total, 20,000 cells/ml of U87MG, HEK293T, hASTRO and 4T1 were seeded onto glass cover slips in 24-well plates. The cells incubated at 37 °C in a 5% CO2 atmosphere overnight. Cells were washed with 1 ml of PBS buffer two times, then a 10 μM solution of probes was added to each well for 2 h. For nuclei staining, 1 µg/ml of DAPI was added the last 15 min of treatment. The cover slips were removed and washed with PBS buffer, and fixed with 0.5 ml of 4% formaldehyde solution for 10 min. The cover slips were washed with 1 ml of PBS, then slides were prepared using Mounting Media (Merck Life Science). Fluorescence images were acquired using a Leica THUNDER Imager 3D Live Cell (Leica Microsystems, Wetzlar, Germany) microscope equipped with an S Fluor 40×/1.3 objective using the LAS X software.

[5] = system: U87MG, 3054, 3060, HEK293T, 4T1, human fetal astrocytes; assay: Cell viability (MTT assay), all cell lines of Fig. 6a; format: cell-based; conditions: 10 µM, 72 h
Protocol: as §1

[6] = system: patient-derived glioma cell 3054; assay: Fluorescent microscopy of probe in cells; format: cell-based, human; conditions: 10 µM
[7] = Cell viability (MTT assay); format: cell-based, murine; conditions: mouse, 4T1 mammary carcinoma cells
Protocol: as §1

[8] = system: 4T1 murine mammary carcinoma; assay: Cell viability (MTT assay); format: cell-based; conditions: 10uM, 72 h
Protocol: as §1

[9] = system: patient-derived glioma cell 3060; assay: Fluorescent microscopy of probe in cells; format: cell-based, human; conditions: 10 µM

## COc1cc(/C=C/C(O)=C/C(=O)/C=C/c2ccc(OCc3cn(CCOc4ccc(C=O)cc4)nn3)c(OC)c2)ccc1O [Probe 10]
[1]
  % cell viability: 84.6125% and 86.4467% and 91.2307% and 96.8963% and 84.5125% and 86.3467% and 91.1307%
[2]; HEK293T embryonic kidney cells
  viability at 72 h, 10 µM: 96.8%
[2]; U87MG glioblastoma cells
  viability at 72 h, 10 µM: 86.8%
[2]; human fetal astrocytes, hASTRO
  viability at 72 h, 10 µM: 85.3%
[2]; patient-derived glioma cells 3054, 3054
  viability at 72 h, 10 µM: 91.4%
[2]; patient-derived glioma cells 3060, 3060
  viability at 72 h, 10 µM: 91.2%
U87MG human glioblastoma
  % cell viability: 87.4968% and 85.4873% and 86.3577% and 86.8785% and 87.5968% and 85.3873% and 86.4577%
[3]
  % cell viability: 90.8745% and 90.3258% and 91.3365% and 91.3478% and 90.9745% and 90.4258% and 91.2365%
[4]
  % cell viability: 92.2458% and 92.6485% and 92.3652% and 91.8745% and 92.3458% and 92.5485% and 92.2652%
Human fetal astrocytes
  % cell viability: 80.9182% and 84.1614% and 88.5188% and 85.4535% and 80.8182% and 84.0614% and 88.4188%
HEK293T cells
  If ROI: 64.441 a.u. and 43.961 a.u. and 59.771 a.u. and 72.091 a.u. and 46.461 a.u.
[5]
  cell mortality: unable to induce cell mortality
[6]; 2 h
  fluorescence in cells: can determine fluorescence
[6]; 3054, 2 h (Fig. 5g)
  If ROI: 223.52 a.u. and 222.87 a.u. and 254.268 a.u. and 245.65 a.u. and 230.548 a.u.
[7]
  viability at 72 h, 10 µM: 83.6%
[8]
  % cell viability: 86.9788% and 85.5694% and 83.5736% and 83.6921% and 86.8788% and 85.6693% and 83.8736%
[9]; 2 h
  fluorescence in cells: can determine fluorescence
[9]; 3060, 2 h (Fig. 5g)
  If ROI: 254.68 a.u. and 232.45 a.u. and 200.36 a.u. and 210.52 a.u. and 200.45 a.u.
